Laboratory results published in US7923461B2, “TNF-α production inhibitors” (Santen Pharmaceutical Co., Ltd., priority 2000, dated 2011).

| melting point | Structure (SMILES) |
| --- | --- |
| 120 to 122.5 °C | Cl.O=C(NCCCc1ccncc1)N(CCC12CC3CC(CC(C3)C1)C2)CCC12CC3CC(CC(C3)C1)C2 |
| 133.7 to 137 °C | CCCCCN(CCC12CC3CC(CC(C3)C1)C2)C(=O)CNCCc1ccncc1.Cl.Cl |
| ~ 100 °C | Cl.Cl.NN(CCC12CC3CC(CC(C3)C1)C2)C(=O)NCCCc1ccncc1 |
| 104 to 106.5 °C | CN(C)CCN(CCC12CC3CC(CC(C3)C1)C2)C(=O)NCCCc1ccncc1 [Compound No. 1-15, 1-[2-(1-Adamantyl)ethyl]-1-[2-(dimethylamino)ethyl]-3-[3-(4-pyridyl)propyl]urea] |
| 99 to 103 °C | CCCN(CCC12CC3CC(CC(C3)C1)C2)C(=O)NCCCc1ccncc1 [Compound No. 1-16, 1-[2-(1-Adamantyl)ethyl]-1-propyl-3-[3-(4-pyridyl)propyl]urea] |
| 152 to 154 °C | C#CCN(CCC12CC3CC(CC(C3)C1)C2)C(=O)NCCCc1ccncc1 [Compound No. 1-17, 1-[2-(1-Adamantyl)ethyl]-1-(2-propynyl)-3-[3-(4-pyridyl)propyl]urea] |
| 108 to 115.5 °C | O=C(NCCCc1ccncc1)N(CCC12CC3CC(CC(C3)C1)C2)C1CC1 [Compound No. 1-19, 1-[2-(1-Adamantyl)ethyl]-1-cyclopropyl-3-[3-(4-pyridyl)propyl]urea] |
| 155 to 158 °C | O=C(NCCCc1ccncc1)N(CCC12CC3CC(CC(C3)C1)C2)CC1CCCC1 [Compound No. 1-21, 1-[2-(1-Adamantyl)ethyl]-1-cyclopentylmethyl-3-[3-(4-pyridyl)propyl]urea] |
| 99 to 102 °C | C=CCN(CCC12CC3CC(CC(C3)C1)C2)C(=O)NCCCc1ccncc1 [Compound No. 1-23, 1-[2-(1-Adamantyl)ethyl]-1-allyl-3-[3-(4-pyridyl)propyl]urea] |
| 119.5 to 121.5 °C | CCCCCCN(CCC12CC3CC(CC(C3)C1)C2)C(=O)NCCCc1ccncc1 [Compound No. 1-29, 1-[2-(1-Adamantyl)ethyl]-1-hexyl-3-[3-(4-pyridyl)propyl]urea] |
| 108 to 109 °C | C=C(C)CN(CCC12CC3CC(CC(C3)C1)C2)C(=O)NCCCc1ccncc1 [Compound No. 1-33, 1-[2-(1-Adamantyl)ethyl]-1-(2-methyl-2-propenyl)-3-[3-(4-pyridyl)propyl]urea] |
| 99 to 109 °C | CN(CCC12CC3CC(CC(C3)C1)C2)C(=O)NCCCc1ccncc1 [Compound No. 1-40, 1-[2-(1-Adamantyl)ethyl]-1-methyl-3-[3-(4-pyridyl)propyl]urea] |
| 106 to 115 °C | CCN(CCC12CC3CC(CC(C3)C1)C2)C(=O)NCCCc1ccncc1 [Compound No. 1-41, 1-[2-(1-Adamantyl)ethyl]-1-ethyl-3-[3-(4-pyridyl)propyl]urea] |
| 109.5 to 118 °C | CCCCN(CCC12CC3CC(CC(C3)C1)C2)C(=O)NCCCc1ccncc1 [Compound No. 1-57, 1-[2-(1-Adamantyl)ethyl]-1-butyl-3-[3-(4-pyridyl)propyl]urea] |
| 96.5 to 108 °C | CCCCCN(CCC12CC3CC(CC(C3)C1)C2)C(=O)NCc1ccncc1 [Compound No. 1-74, 1-[2-(1-Adamantyl)ethyl]-1-pentyl-3-(4-pyridyl)methylurea] |
| 107 to 118 °C | CCCCCN(CCC12CC3CC(CC(C3)C1)C2)C(=O)NCCc1ccncc1 [Compound No. 1-80, 1-[2-(1-Adamantyl)ethyl]-1-pentyl-3-[2-(4-pyridyl)ethyl]urea] |
| 74.1 to 78.1 °C | CCCCCN(CCC12CC3CC(CC(C3)C1)C2)C(=O)NCCCCc1ccncc1 [Compound No. 1-87, 1-[2-(1-Adamantyl)ethyl]-1-pentyl-3-[4-(4-pyridyl)butyl]urea] |

Continued, compound first:

| Structure (SMILES) | melting point |
| --- | --- |
| CCCCCN(CCC12CC3CC(CC(C3)C1)C2)C(=O)NCCc1ccc(O)cc1 | 96.3 to 99.4 °C |
| Cl.O=C(NCc1ccncc1)N(CCC1CCCCC1)Cc1cccs1 | 161.8 to 164.4 °C |
| CC(C)CCN(CCC(C)C)C(=O)NCCCc1ccncc1.Cl | 120.5 to 131.7 °C |
| Cl.O=C1CCN(CCC2CCCCC2)C(=O)N1Cc1ccncc1 | 64 to 74.5 °C |
| Cl.O=C1CCN(CCCc2ccncc2)C(=O)N1CCC12CC3CC(CC(C3)C1)C2 | 170 °C |
| O=C(NCCCc1ccncc1)N1CCc2ccccc2C1 [Compound No. 1-5, N-[3-(4-Pyridyl)propyl]-1,2,3,4-tetrahydroisoquinoline-2-carboxamide] | 76 to 79 °C |
| O=C(NCCCc1ccncc1)N1CCOCC1 [Compound No. 1-6, N-[3-(4-Pyridyl)propyl]-4-morpholinecarboxamide] | 94 to 98 °C |
| CCCCCN(CCC1CCCCC1)C(=O)NCc1ccncc1 [Compound No. 1-52, 1-(2-Cyclohexylethyl)-1-pentyl-3-(4-pyridyl)methylurea] | 64.7 to 65.8 °C |
| O=C(N(CCCc1ccncc1)Cc1ccccc1)N(CCCc1ccccc1)C1CCCCC1 [Compound No. 1-60, 1-Cyclohexyl(phenyl)methyl-1-(3-phenylpropyl)-3-[3-(4-pyridyl)propyl]urea] | 107 to 112 °C |
| O=C(NCCCc1ccncc1)N(C1CCCCC1)C1CCCCC1 [Compound No. 1-61, 1,1-Dicyclohexyl-3-[3-(4-pyridyl)propyl]urea] | 143 to 145.5 °C |
| CC(C)(C)OC(=O)CCN(CCC12CC3CC(CC(C3)C1)C2)C(=O)NCCCc1ccncc1 [Compound No. 1-69, 1-[2-(1-Adamantyl)ethyl]-1-[2-(t-butoxycarbonyl)ethyl]-3-[3-(4-pyridyl)propyl]urea] | 124.5 to 127 °C |
| CCCCCN(CCC12CC3CC(CC(C3)C1)C2)C(=O)NCc1ccccn1 [Compound No. 1-72, 1-[2-(1-Adamantyl)ethyl]-1-pentyl-3-(2-pyridyl)methylurea] | 87.5 to 92 °C |
| CCCCCN(CCC12CC3CC(CC(C3)C1)C2)C(=O)NCc1cccnc1 [Compound No. 1-73, 1-[2-(1-Adamantyl)ethyl]-1-pentyl-3-(3-pyridyl)methylurea] | 88.5 to 101.5 °C |
| CCCCCN(CCC12CC3CC(CC(C3)C1)C2)C(=O)NCCc1ccccn1 [Compound No. 1-75, 1-[2-(1-Adamantyl)ethyl]-1-pentyl-3-[2-(2-pyridyl)ethyl]urea] | 80 to 100 °C |
| CCCCCN(CCC12CC3CC(CC(C3)C1)C2)C(=O)NCCc1cccnc1 [Compound No. 1-76, 1-[2-(1-Adamantyl)ethyl]-1-pentyl-3-[2-(3-pyridyl)ethyl]urea] | 112.5 to 114.5 °C |
| CCCCCN(CCC12CC3CC(CC(C3)C1)C2)C(=O)NCCCc1ccccn1 [Compound No. 1-83, 1-[2-(1-Adamantyl)ethyl]-1-pentyl-3-[3-(2-pyridyl)propyl]urea] | 84.4 to 85.7 °C |
| CCCCCN(CCC12CC3CC(CC(C3)C1)C2)C(=O)NCCCc1ccnc2ccccc12 [Compound No. 1-91, 1-[2-(1-Adamantyl)ethyl]-1-pentyl-3-[3-(4-quinolyl)propyl]urea] | 80.2 to 102 °C |
| O=C(NCCCc1ccncc1)N(CCCc1ccccc1)C(c1ccccc1)c1ccccc1 [Compound No. 1-93, 1-Diphenylmethyl-1-(3-phenylpropyl)-3-[3-(4-pyridyl)propyl]urea] | 123 to 124.8 °C |
